Test results from patent US7563862B2, “Neural regeneration peptides and methods for their use in treatment of brain damage” (Neuren Pharmaceuticals Limited, priority 2001, dated 2009).
Several values for one entry are separate records, joined by “and”; a condition that tells them apart may be missing. Equal values may be shown once. Ends that are not written are not given here.

Key:
[1] = system: thalamic parvalbumin-ir neurons; assay: BrdU/parvalbumin proliferation within thalamocortical OTCs; type: cell-based, rat; conditions: 3 nM
Procedure: Thalamocortical OTCs from rats, as described above in Examples 3 and 4 were incubated at the start of cultivation with 2 μM of BrdU that was removed after 24 hours of cultivation time. OTCs were fixed in 4% paraformaldehyde in 0.1 M phosphate buffer (pH 7.4). Blocking was done in 0.4% Triton and 10% normal goat serum in PBS for 30 minutes. Subsequently the cultures were treated for 30 minutes in 2N HCl at 37° C. and neutralized by 0.1 M Na2B4O7 for 2×5 minutes. Internal peroxidase activity was prevented by 5 minute treatment of the OTCs in 1% H2O2 (only in case of the PAP reaction). Primary antibody (mouse anti-BrdU 1/50-Sigma) reaction was done overnight in 0.4% Triton, 2% BSA in PBS.
Biotinylated goat anti-mouse IgG was applied (1/200 for 2 h) with the subsequent application of the avidin biotin horseradish peroxidase system and the final DAB-detection (0.05%); 0.009% H2O2 enhanced by 0.025% cobalt chloride and 0.02% nickel ammonium sulphate. BrdU-positive nuclei become black stained. […] For double fluorescence detection, mouse anti-BrdU IgG and rabbit anti-parvalbumin IgG (or rabbit anti-calretinin 1/1000) were given simultaneously after the neutralisation step and anti-parvalbumin antibody binding was detected by the biotin-streptavidin/Cy2 detection system while the occurrence of BrdU was monitored by an anti-mouse/Cy3 IgG. […]

thalamocortical OTCs = assay: thalamocortical OTC neuronal migration assay (cell bridge / cell chain); type: cell-based, rat
Source text: We developed a new assay system for identifying NRP having migration-inducing activity. The assay system was used following guidelines approved by the Gesundheitsamt Magdeburg animal ethics committee. Newborn Long Evans rats (P0) were killed by decapitation, and neural tissues were used for preparation of organotypic cultures (OTCs). Neocortical tissue (areas 17-18 according to the Paxinos rat atlas of the developing rat brain) and thalamic tissue from the dorsal thalamus (visual areas) were extracted. These areas represent the visual axis. The dorsal thalamus was accessed by an intersection cut to remove the hypothalamus. Subsequently, the thalamus was sliced frontally using a McIllwain tissue chopper into 350 μm thick slices. Using a dissecting microscope, the habenula nucleus served as a landmark to select only dorsal thalamic areas. Cortical tissues were cut using two sagittal and two frontal intersections in order to obtain areas 17-18 of the occipital cortex. Before the last frontal cut was made, the hippocampal formation was removed. The cortical tissues were sliced by a Mclllwain tissue chopper into 350 μm thick frontal slices and was incubated in Gey's balanced salt solution (GBSS) plus 0.65% D(+)glucose, and tissuesswere kept at 4° C. for at least 30-40 minutes for recovery.
For each assay, two slices of tissue, one cortical and one thalamic, were arranged at a distance at least about 3 mm from each other on a glass substrate (e.g., a cover slip; FIG. 1). The thalamus was oriented with the habenula nucleus facing cortical layer VI. The tissues were adhered to the substrate using a plasma clot (10 μl chicken plasma (Cocalico) coagulated with 10 μl thrombin (25 U/ml, ICN) and the tissues were subsequently cultured (cultivated) at 36° C. in a roller tube incubator as organotypic cultures using 2/4 BME/¼ HBSS (Invitrogen) medium supplemented with 25% heat-inactivated horse serum (Gaehwiler, 1981) plus 2 mM L0glutamine and 0.65% D-glucose. A 712.5 μl sample of prepared medium was supplemented with 37.5 μl of purified rat NRP-1 (SEQ ID NO:2) (in concentrated or diluted form) in 0.01 M sodium phosphate (pH 7.3) or phosphate alone (control). For the experiments using 600 ng/ml NRP-1, the peptide was concentrated 4 times by speed vacuum centrifugation. The medium containing NRP was changed every three days. After each study was completed, the tissues were fixed using conventional fixatives, and migrating neurons were analysed by immunocytochemistry.
Thus, any observations of neurite outgrowths or interconnecting cell bridges are due to the influence of factors added to the culture medium. […] Thus, in certain embodiments of this invention, NRPs can be identified and/or quantified. In other embodiments, NRPs amounts can be standardized, forming a basis for therapeutic application of NRPs to treat neurological diseases or conditions.
Migration of the thalamic neurons was determined after 3 days of co-culture in the presence of NRP. The migration distances were measured by a micrometer scaled-microscopic ocular, beginning from the tissue margin of the migrating cell stream. As a threshold value for the formation of a migrating cell chain was considered to be a number of at least 5 interconnected neurons. For the determination of the dose-response curve, the longest distance of a migrated neuron from the thalamic tissue margin was measured. Results are given as mean values+/− standard deviation.

With “NRP-1: rat 16 amino acid neural regeneration peptide purified from hippocampal OTC supernatant, Tyr Asp Pro Glu ... Cys His-NH2 (YDPEAASAPGSGNPCH-NH2)” the “parvalbumin-ir thalamic neurons co-localised with BrdU” value ([1]; 5 days in vitro) was 6.8±1.3% and 6.8%, the “enhanced proliferation of parvalbumin expressing neurons compared to controls” value ([1]; vs defined medium alone) was “up to 150%” and the “concentration at which neuronal migration was clearly detected” value (thalamocortical OTCs; 2 ng/ml = 1 nM) was 2 ng/mL. The “length of cell bridge between the thalamic and cortical tissues” value (thalamocortical OTCs; 6 ng/ml (3 nM)) was 2500±240 μm, the “concentrations at which neuronal migration was not increased” value (thalamocortical OTCs; 10-30 nM) was 20 to 60 ng/mL and the “interconnecting neurite network formed, time after cultivation start” value (thalamocortical OTCs; NRP-1 supplemented co-cultures) was no more than 36 h. The “concentration producing the longest cell chain” value (thalamocortical OTCs; dose-response 2-600 ng/ml, 6 ng/ml = 3 nM) was 6 ng/mL and the “concentration producing the greatest effect (migrating cell chain)” value (thalamocortical OTCs; thalamocortical OTCs) was 3 nM.
